# Experimental data taken from patent US20260256925A1, “INDAZOLE DERIVATIVES AS ESTROGEN RECEPTOR DEGRADERS” (REGENTS OF THE UNIVERSITY OF MICHIGAN, priority 2022, published 2026).
# Assays:
# [1] = Cell growth assay, WST-8 (compounds B1-B126); type: cell-based; conditions: 96 h; T47D cell line, WST-8, 4 days; read-out: Cell growth inhibition in T47D cell line IC50
# Method: Cell Growth Assay. The cells are seeded at certain concentration (e.g., at 1500/well) in multi-well plates overnight. Cells are subsequently treated with the compounds. A certain period of time (e.g., 4 days) after the compound treatment, 10% WST-8 reagent is added to the culture medium and incubate under certain condiction (e.g., in a CO2 incubator at 37° C. for 2.5 hours). The absorbance is measured on each sample using a microplate reader at certain wavelength (e.g., 450 nm). The relative absorbance is calculated against the vehicle control from three individually repeats.
# Cell Growth Assay. The cells were seeded at 1500/well in 96 well plates overnight. One day after the seeding, they were treated with indicated doses of compounds respectively. 4 days after the compound treatment, 10% WST-8 reagent was added to the culture medium and incubate in a CO2 incubator at 37° C. for 2.5 hours. Before reading, the plate was mixed gently on an orbital shaker for one minute to ensure homogeneous distribution of color. The absorbance was measured of each sample using a microplate reader at a wavelength of 450 nm. The relative absorbance was calculated against the vehicle control from three individually repeats.
# ER = biological target: T1, ER (Homo sapiens, UniProt P03372); assay: In-cell western blot analysis, relative ER percentage (compounds B1-B126); type: cell-based; conditions: ER degradation, 16 hours, read-out: ICW DC50
# T1 construct: endogenous in cells; probably T47D or MCF-7
# T1 sequence (P03372 1-595): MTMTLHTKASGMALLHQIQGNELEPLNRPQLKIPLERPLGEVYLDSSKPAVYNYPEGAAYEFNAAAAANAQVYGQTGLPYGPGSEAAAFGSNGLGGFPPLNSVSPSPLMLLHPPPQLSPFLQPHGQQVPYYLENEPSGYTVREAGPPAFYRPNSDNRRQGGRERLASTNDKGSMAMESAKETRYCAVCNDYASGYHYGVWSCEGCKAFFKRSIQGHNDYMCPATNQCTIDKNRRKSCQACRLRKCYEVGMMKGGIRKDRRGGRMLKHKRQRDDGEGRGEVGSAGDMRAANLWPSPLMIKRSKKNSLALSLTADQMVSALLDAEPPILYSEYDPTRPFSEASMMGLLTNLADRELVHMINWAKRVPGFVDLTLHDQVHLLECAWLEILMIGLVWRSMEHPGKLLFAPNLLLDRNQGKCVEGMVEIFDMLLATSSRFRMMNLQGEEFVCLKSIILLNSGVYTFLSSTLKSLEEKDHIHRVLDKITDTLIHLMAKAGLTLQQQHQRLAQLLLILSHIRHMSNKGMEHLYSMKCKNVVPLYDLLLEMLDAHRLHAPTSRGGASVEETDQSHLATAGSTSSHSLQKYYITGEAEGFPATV
# Method: In-cell western blot analysis. Cells are seeded in multi-well plates (e.g., at 40,000 or 10,000 cells/well). Diluted compounds at certain concentration are added (final 0.5% DMSO) and cells are incubated for a certain period of time (e.g., 16 hours). Formaldehyde (e.g., PBS: FA=9:1) is added and followed by washing with PBS. The cells are blocked with Licor blocking buffer (Li-Cor). The relative ER percentage in treated cells are obtained by comparing the values of treated wells to those in untreated and DMSO-treated wells as 100%.
# In-cell western blot analysis. a. seed cells in black-sided/clear bottom 96- or 384-well plates at 40,000 or 10,000 cells/well, overnight; b. add diluted compounds (final 0.5% DMSO), 16 hours. […] RT 2h, gentle shaking. Negative control: cells plus secondary antibodies (no primary antibodies); e. wash×4 with PBS +0.05-0.1% Tween 20, gentel shaking; f. anti-rabbit-680 and anti-mouse-800 (both 1:1000 in LiCor block+0.05% Tween20, RT 1h, gentle shaking, no light. LI-COR: 0.2% to reduce background; g. wash×4 with PBS+0.05% Tween 20, gental shaking; h. add 100 μL or 25 μL of PBS to each well and read on CLX plate reader. The relative ER percentage in treated cells were obtained by comparing the values of treated wells to those in untreated and DMSO-treated wells as 100%.
DC50 (ER) [nM],Compound,IC50 [1] [nM]
< 10,"C[C@@H]1Cc2c(ccc3[nH]ncc23)[C@@H](c2ccc(N3CCC4(CC3)CC(CN3CCN5c6ccc7c(c6OC[C@H]5C3)CN(C3CCC(=O)NC3=O)C7=O)CO4)cn2)N1CC(F)(F)F (stereo partly drawn) [Compound B91, 3-((5aR)-7-((8-(6-((6S,8R)-8-methyl-7-(2,2,2-trifluoroethyl)-6,7,8,9-tetrahydro-3H-pyrazolo[4,3-f]isoquinolin-6-yl)pyridin-3-yl)-1-oxa-8-azaspiro[4.5]decan-3-yl)methyl)-1-oxo-1,3,5,5a,6,7,8,9-octahydro-2H-pyrazino[1′,2′:4,5][1,4]oxazino[2,3-e]isoindol-2-yl)piperidine-2,6-dione]",1 to 10
< 10,"C[C@@H]1Cc2c(ccc3[nH]ncc23)[C@@H](c2c(F)cc(NC3CN(CC(=O)N4CCN5c6ccc7c(c6OC[C@H]5C4)CN(C4CCC(=O)NC4=O)C7=O)C3)cc2F)N1CC(F)F (stereo partly drawn) [Compound B101, 3-((R)-7-(2-(3-((4-((6S,8R)-7-(2,2-difluoroethyl)-8-methyl-6,7,8,9-tetrahydro-3H-pyrazolo[4,3-f]isoquinolin-6-yl)-3,5-difluorophenyl)amino)azctidin-1-yl)acetyl)-1-oxo-1,3,5,5a,6,7,8,9-octahydro-2H-pyrazino[1′,2′:4,5][1,4]oxazino[2,3-e]isoindol-2-yl)piperidine-2,6-dione]",1 to 10
10 to 100,"C[C@H]1Cc2c(ccc3[nH]ncc23)[C@H](c2ccc(NC3CN(CC(=O)N4CCN5c6cc7c(cc6OC[C@@H]5C4)C(=O)N(C4CCC(=O)NC4=O)C7)C3)cn2)N1CC(F)(F)F (stereo partly drawn) [Compound B43, 3-((S)-3-(2-(3-((6-((6R,8S)-8-methyl-7-(2,2,2-trifluoroethyl)-6,7,8,9-tetrahydro-3H-pyrazolo[4,3-f]isoquinolin-6-yl)pyridin-3-yl)amino)azetidin-1-yl)acetyl)-8-oxo-1,2,3,4,4a,5,8,10-octahydro-9H-pyrazino[1′,2′:4,5][1,4]oxazino[2,3-f]isoindol-9-yl)piperidine-2,6-dione]",1 to 10
< 10,"COc1cc(N2CCC3(CC2)OCC(CN2CCN4c5ccc6c(c5OC[C@@H]4C2)CN([C@@H]2CCC(=O)NC2=O)C6=O)CO3)ccc1[C@@H]1c2ccc3[nH]ncc3c2C[C@@H](C)N1CC(F)F [Compound B116, (R)-3-((S)-7-((9-(4-((6S,8R)-7-(2,2-difluoroethyl)-8-methyl-6,7,8,9-tetrahydro-3H-pyrazolo[4,3-f]isoquinolin-6-yl)-3-methoxyphenyl)-1,5-dioxa-9-azaspiro[5.5]undecan-3-yl)methyl)-1-oxo-1,3,5,5a,6,7,8,9-octahydro-2H-pyrazino[1′,2′:4,5][1,4]oxazino[2,3-e]isoindol-2-yl)piperidine-2,6-dione]",< 1
< 10,"C[C@@H]1Cc2c(ccc3[nH]ncc23)[C@@H](c2c(F)cc(N3CC4(CCN(C(=O)CN5CCN6c7cc8c(cc7OC[C@@H]6C5)C(=O)N(C5CCC(=O)NC5=O)C8)C4)C3)cc2F)N1CC(F)F (stereo partly drawn) [Compound B36, 3-((S)-3-(2-(2-(4-((6S,8R)-7-(2,2-difluoroethyl)-8-methyl-6,7,8,9-tetrahydro-3H-pyrazolo[4,3-f]isoquinolin-6-yl)-3,5-difluorophenyl)-2,6-diazaspiro[3.4]octan-6-yl)-2-oxoethyl)-8-oxo-1,2,3,4,4a,5,8,10-octahydro-9H-pyrazino[1′,2′:4,5][1,4]oxazino[2,3-f]isoindol-9-yl)piperidine-2,6-dione]",< 1
10 to 100,"COc1cc(N2CCC3(CCN(CC(=O)N4Cc5cc6c(cc5C4)C(=O)N(C4CCC(=O)NC4=O)C6=O)CC3)CC2)ccc1[C@@H]1c2ccc3[nH]ncc3c2C[C@@H](C)N1CC(F)F (stereo partly drawn) [Compound B51, 6-(2-(9-(4-((6S,8R)-7-(2,2-difluoroethyl)-8-methyl-6,7,8,9-tetrahydro-3H-pyrazolo[4,3-f]isoquinolin-6-yl)-3-methoxyphenyl)-3,9-diazaspiro[5.5]undecan-3-yl)acetyl)-2-(2,6-dioxopiperidin-3-yl)-6,7-dihydropyrrolo[3,4-f]isoindole-1,3(2H,5H)-dione]",> 10
< 10,"C[C@@H]1Cc2c(ccc3[nH]ncc23)[C@@H](c2ccc(N3CCC4(CC3)CC(CN3CCN5c6ccc7c(c6OC[C@H]5C3)CN(C3CCC(=O)NC3=O)C7=O)C4)cn2)N1CC(F)(F)F (stereo partly drawn) [Compound B106, 3-((R)-7-((7-(6-((6S,8R)-8-methyl-7-(2,2,2-trifluoroethyl)-6,7,8,9-tetrahydro-3H-pyrazolo[4,3-f]isoquinolin-6-yl)pyridin-3-yl)-7-azaspiro[3.5]nonan-2-yl)mcthyl)-1-oxo-1,3,5,5a,6,7,8,9-octahydro-2H-pyrazino[1′,2′:4,5][1,4]oxazino[2,3-e]isoindol-2-yl)piperidine-2,6-dione]",< 1
< 10,"C[C@@H]1Cc2c(ccc3[nH]ncc23)[C@@H](c2ccc(N3CCC(CN4CCN(c5ccc6c(c5)CN(C5CCC(=O)NC5=O)C6=O)CC4)CC3)cn2)N1CC(F)(F)F (stereo partly drawn) [Compound B63, 3-(5-(4-((1-(6-((6S,8R)-8-methyl-7-(2,2,2-trifluoroethyl)-6,7,8,9-tetrahydro-3H-pyrazolo[4,3-f]isoquinolin-6-yl)pyridin-3-yl)piperidin-4-yl)methyl)piperazin-1-yl)-1-oxoisoindolin-2-yl)piperidine-2,6-dione]",< 1
< 10,"C[C@@H]1Cc2c(ccc3[nH]ncc23)[C@@H](c2c(F)cc(N3CCN(CC(=O)N4CCN5c6cc7c(cc6OC[C@@H]5C4)C(=O)N(C4CCC(=O)NC4=O)C7)CC3)cc2F)N1CC(F)F (stereo partly drawn) [Compound B32, 3-((S)-3-(2-(4-(4-((6S,8R)-7-(2,2-difluoroethyl)-8-methyl-6,7,8,9-tetrahydro-3H-pyrazolo[4,3-f]isoquinolin-6-yl)-3,5-difluorophenyl)pipcrazin-1-yl)acetyl)-8-oxo-1,2,3,4,4a,5,8,10-octahydro-9H-pyrazino[1′,2′:4,5][1,4]oxazino[2,3-f]isoindol-9-yl)piperidine-2,6-dione]",< 1
10 to 100,C[C@@H]1Cc2c(ccc3[nH]ncc23)[C@@H](c2c(F)cc(N3CCN(C(=O)CN4CCN5c6cc7c(cc6OC[C@@H]5C4)C(=O)N(C4CCC(=O)NC4=O)C7)CC3)cc2F)N1CC(F)F (stereo partly drawn) [Compound B31],< 1
10 to 100,"C[C@@H]1Cc2c(ccc3[nH]ncc23)[C@@H](c2c(F)cc(N3CCC(CN4CCN5c6c(ccc7c6CN(C6CCC(=O)NC6=O)C7=O)OC[C@@H]5C4)CC3)cc2F)N1CC(F)F (stereo partly drawn) [Compound B99, 3-((S)-9-((1-(4-((6S,8R)-7-(2,2-difluoroethyl)-8-methyl-6,7,8,9-tetrahydro-3H-pyrazolo[4,3-f]isoquinolin-6-yl)-3,5-difluorophenyl)piperidin-4-yl)methyl)-3-oxo-1,3,7,7a,8,9,10,11-octahydro-2H-pyrazino[1′,2′:4,5][1,4]oxazino[3,2-e]isoindol-2-yl)piperidine-2,6-dione]",> 10

Compound,DC50 (ER) [nM],IC50 [1] [nM]
"COc1cc(N2CCC3(CC2)OCC(CN2CCC4(CC2)COc2c4ccc4c2CN(C2CCC(=O)NC2=O)C4=O)CO3)ccc1[C@@H]1c2ccc3[nH]ncc3c2C[C@@H](C)N1CC(F)F (stereo partly drawn) [Compound B117, 3-(1′-((9-(4-((6S,8R)-7-(2,2-difluoroethyl)-8-methyl-6,7,8,9-tetrahydro-3H-pyrazolo[4,3-f]isoquinolin-6-yl)-3-methoxyphenyl)-1,5-dioxa-9-azaspiro[5.5]undecan-3-yl)methyl)-6-oxo-6,8-dihydro-2H,7H-spiro[furo[2,3-e]isoindole-3,4′-piperidin]-7-yl)piperidine-2,6-dione]",< 10,< 1
